From patent publication US9884842B2, “Combretastatin analogs” (The Board of Trustees of the University of Arkansas, priority 2013, dated 2018)

Columns and labels:
OVCAR-5 = test: NCI growth inhibition and cytotoxicity screen, Ovarian Cancer panel; settings: Homo sapiens; for GI50: OVCAR-5; for CC50: OVCAR-5, read-out: LC50
HOP-92 = test: NCI growth inhibition and cytotoxicity screen, Lung Cancer panel; settings: Homo sapiens; for GI50: HOP-92; for CC50: HOP-92, read-out: LC50
MDA-MB-231/ATCC = test: NCI growth inhibition and cytotoxicity screen, Breast Cancer panel; settings: Homo sapiens; for GI50: MDA-MB-231; for CC50: MDA-MB-231, read-out: LC50
BT-549 = test: as above; settings: Homo sapiens; for GI50: BT-549; for CC50: BT-549, read-out: LC50
TK-10 = test: NCI growth inhibition and cytotoxicity screen, Renal Cancer panel; settings: Homo sapiens; for GI50: TK-10; for CC50: TK-10, read-out: LC50
DU-145 = test: NCI growth inhibition and cytotoxicity screen, Prostate Cancer panel; settings: Homo sapiens; for GI50: DU-145; for CC50: DU-145, read-out: LC50
MDA-MB-468 = test: cells; settings: Homo sapiens; for GI50: MDA-MB-468; for CC50: MDA-MB-468, read-out: LC50
SN12C = test: NCI growth inhibition and cytotoxicity screen, Renal Cancer panel; settings: Homo sapiens; for CC50: read-out: LC50
A549/ATCC = test: NCI growth inhibition and cytotoxicity screen, Lung Cancer panel; settings: Homo sapiens; for GI50: A549; for CC50: A549, read-out: LC50
A498 = test: NCI growth inhibition and cytotoxicity screen, Renal Cancer panel; settings: Homo sapiens; for GI50: A498; for CC50: A498, read-out: LC50
SK-MEL-2 = test: NCI growth inhibition and cytotoxicity screen, Melanoma panel; settings: Homo sapiens; for GI50: SK-MEL-2; for CC50: SK-MEL-2, read-out: LC50
SF-539 = test: NCI growth inhibition and cytotoxicity screen, CNS Cancer panel; settings: Homo sapiens; for GI50: SF-539; for CC50: SF-539, read-out: LC50
SK-MEL-5 = test: NCI growth inhibition and cytotoxicity screen, Melanoma panel; settings: Homo sapiens; for GI50: SK-MEL-5; for CC50: SK-MEL-5, read-out: LC50
ACHN = test: NCI growth inhibition and cytotoxicity screen, Renal Cancer panel; settings: Homo sapiens; for CC50: read-out: LC50
HCC-2998 = test: NCI growth inhibition and cytotoxicity screen, Colon Cancer panel; settings: Homo sapiens; for GI50: HCC 2998; for CC50: HCC 2998, read-out: LC50
MALME-3M = test: NCI growth inhibition and cytotoxicity screen, Melanoma panel; settings: Homo sapiens; for CC50: read-out: LC50
SK-MEL-28 = test: as above; settings: Homo sapiens; for GI50: SK-MEL-28; for CC50: SK-MEL-28, read-out: LC50
HOP-62 = test: NCI growth inhibition and cytotoxicity screen, Lung Cancer panel; settings: Homo sapiens; for GI50: HOP-62; for CC50: HOP-62, read-out: LC50
CCRF-CEM = test: NCI growth inhibition and cytotoxicity screen, Leukemia panel; settings: Homo sapiens; for CC50: read-out: LC50
SF-268 = test: NCI growth inhibition and cytotoxicity screen, CNS Cancer panel; settings: Homo sapiens; for GI50: SF-268; for CC50: SF-268, read-out: LC50
MDA-MB-435 = test: NCI growth inhibition and cytotoxicity screen, Melanoma panel; settings: Homo sapiens; for GI50: MDA-MB-435; for CC50: MDA-MB-435, read-out: LC50
HL-60(TB) = test: cells; settings: Homo sapiens; for GI50: HL-60; for CC50: HL-60, read-out: LC50
OVCAR-3 = test: cells; settings: Homo sapiens; for GI50: OVCAR-3; for CC50: OVCAR-3, read-out: LC50
OVCAR-4 = test: NCI growth inhibition and cytotoxicity screen, Ovarian Cancer panel; settings: Homo sapiens; for GI50: OVCAR-4; for CC50: OVCAR-4, read-out: LC50
SW-620 = test: NCI growth inhibition and cytotoxicity screen, Colon Cancer panel; settings: Homo sapiens; for GI50: SW-620; for CC50: SW-620, read-out: LC50
NCI-H322M = test: NCI growth inhibition and cytotoxicity screen, Lung Cancer panel; settings: Homo sapiens; for CC50: read-out: LC50
T-47D = test: NCI growth inhibition and cytotoxicity screen, Breast Cancer panel; settings: Homo sapiens, T47D; for CC50: read-out: LC50
IGROV1 = test: NCI growth inhibition and cytotoxicity screen, Ovarian Cancer panel; settings: Homo sapiens; for GI50: IGROV-1; for CC50: IGROV-1, read-out: LC50
NCI-H460 = test: NCI growth inhibition and cytotoxicity screen, Lung Cancer panel; settings: Homo sapiens; for GI50: NCI-H460; for CC50: NCI-H460, read-out: LC50
SK-OV-3 = test: NCI growth inhibition and cytotoxicity screen, Ovarian Cancer panel; settings: Homo sapiens; for GI50: SK-OV-3; for CC50: SK-OV-3, read-out: LC50
K-562 = test: NCI growth inhibition and cytotoxicity screen, Leukemia panel; settings: Homo sapiens; for GI50: K562; for CC50: K562, read-out: LC50
786-0 = test: NCI growth inhibition and cytotoxicity screen, Renal Cancer panel; settings: Homo sapiens; for GI50: 786-0; for CC50: 786-0, read-out: LC50

For COc1cc(OC)cc(/C(C#N)=C/c2c[nH]c3ccccc23)c1 [Formula (I)(b)], the GI50 (OVCAR-5) was > 100 nM, the CC50 (OVCAR-5) was > 100000 nM and the GI50 (HOP-92) was 68.4 nM. For the same compound, the CC50 (HOP-92) was > 100000 nM, the GI50 (MDA-MB-231/ATCC) was > 100 nM and the CC50 (MDA-MB-231/ATCC) was > 100000 nM. The GI50 (BT-549) was > 100 nM, the CC50 (BT-549) was > 100000 nM and the GI50 (TK-10) was > 100 nM. The CC50 (TK-10) was > 100000 nM, the GI50 (DU-145) was > 100 nM and the CC50 (DU-145) was > 100000 nM. For the same compound, the GI50 (MDA-MB-468) was > 100 nM, the CC50 (MDA-MB-468) was > 100000 nM and the GI50 (SN12C) was 77.9 nM. For the same compound, the CC50 (SN12C) was > 100000 nM, the GI50 (A549/ATCC) was 61.8 nM and the CC50 (A549/ATCC) was > 100000 nM. For the same compound, the GI50 (A498) was 35.3 nM, the CC50 (A498) was > 100000 nM and the GI50 (SK-MEL-2) was 51.2 nM. The CC50 (SK-MEL-2) was > 100000 nM, the GI50 (SF-539) was 52.2 nM and the CC50 (SF-539) was 90200 nM. The GI50 (SK-MEL-5) was 48.6 nM, the CC50 (SK-MEL-5) was > 100000 nM and the GI50 (ACHN) was > 100 nM. The CC50 (ACHN) was > 100000 nM, the GI50 (HCC-2998) was > 100 nM and the CC50 (HCC-2998) was > 100000 nM. For the same compound, the CC50 (MALME-3M) was > 100000 nM, the GI50 (SK-MEL-28) was 81.1 nM and the CC50 (SK-MEL-28) was > 100000 nM. The GI50 (HOP-62) was > 100 nM, the CC50 (HOP-62) was > 100000 nM and the GI50 (CCRF-CEM) was 42.4 nM. For the same compound, the CC50 (CCRF-CEM) was > 100000 nM, the GI50 (SF-268) was 78.3 nM and the CC50 (SF-268) was > 100000 nM. For the same compound, the GI50 (MDA-MB-435) was 20.3 nM, the CC50 (MDA-MB-435) was > 100000 nM and the GI50 (HL-60(TB)) was 31.2 nM. For the same compound, the CC50 (HL-60(TB)) was > 100000 nM, the GI50 (OVCAR-3) was 31.2 nM and the CC50 (OVCAR-3) was > 100000 nM. The GI50 (OVCAR-4) was > 100 nM, the CC50 (OVCAR-4) was > 100000 nM and the GI50 (SW-620) was 44.1 nM. For the same compound, the CC50 (SW-620) was > 100000 nM, the CC50 (NCI-H322M) was > 100000 nM and the GI50 (T-47D) was > 100 nM. For the same compound, the CC50 (T-47D) was > 100000 nM, the GI50 (IGROV1) was > 100 nM and the CC50 (IGROV1) was > 100000 nM. The GI50 (NCI-H460) was 39.2 nM, the CC50 (NCI-H460) was > 100000 nM and the GI50 (SK-OV-3) was > 100 nM. For the same compound, the CC50 (SK-OV-3) was > 100000 nM, the GI50 (K-562) was 43.2 nM and the CC50 (K-562) was > 100000 nM. The GI50 (786-0) was 77.3 nM and the CC50 (786-0) was > 100000 nM.
COc1cc(OC)cc(/C(C#N)=C/c2ccc3ccccc3n2)c1 [PNR-4-84, (Z)-2-(3,5-dimethoxyphenyl)-3-(quinolin-2-yl)acrylonitrile] gave a GI50 (OVCAR-5) of 716 nM, a CC50 (OVCAR-5) of 42800 nM and a GI50 (HOP-92) of 542 nM. The CC50 (HOP-92) was > 100000 nM, the GI50 (MDA-MB-231/ATCC) was 1020 nM and the CC50 (MDA-MB-231/ATCC) was > 100000 nM. It also gave a GI50 (BT-549) of 342 nM, a CC50 (BT-549) of 80600 nM and a GI50 (TK-10) of 3280 nM. The CC50 (TK-10) was > 100000 nM, the GI50 (DU-145) was 801 nM and the CC50 (DU-145) was > 100000 nM. For the same compound, the GI50 (MDA-MB-468) was 1500 nM, the CC50 (MDA-MB-468) was > 100000 nM and the GI50 (SN12C) was 661 nM. For the same compound, the CC50 (SN12C) was > 100000 nM, the GI50 (A549/ATCC) was 649 nM and the CC50 (A549/ATCC) was > 100000 nM. The GI50 (A498) was 275 nM, the CC50 (A498) was > 100000 nM and the GI50 (SK-MEL-2) was 522 nM. For the same compound, the CC50 (SK-MEL-2) was > 100000 nM, the GI50 (SF-539) was 286 nM and the CC50 (SF-539) was 8030 nM. For the same compound, the GI50 (SK-MEL-5) was 406 nM, the CC50 (SK-MEL-5) was > 100000 nM and the GI50 (ACHN) was 773 nM. For the same compound, the CC50 (ACHN) was > 100000 nM, the GI50 (HCC-2998) was 1420 nM and the CC50 (HCC-2998) was > 100000 nM. For the same compound, the GI50 (MALME-3M) was 348 nM, the CC50 (MALME-3M) was > 100000 nM and the GI50 (SK-MEL-28) was 896 nM. For the same compound, the CC50 (SK-MEL-28) was > 100000 nM, the GI50 (HOP-62) was 959 nM and the CC50 (HOP-62) was > 100000 nM. For the same compound, the GI50 (CCRF-CEM) was 332 nM, the CC50 (CCRF-CEM) was > 100000 nM and the GI50 (SF-268) was 476 nM. The CC50 (SF-268) was > 100000 nM, the GI50 (MDA-MB-435) was 147 nM and the CC50 (MDA-MB-435) was > 100000 nM. For the same compound, the GI50 (HL-60(TB)) was 270 nM, the CC50 (HL-60(TB)) was > 100000 nM and the GI50 (OVCAR-3) was 309 nM. For the same compound, the CC50 (OVCAR-3) was 34000 nM, the GI50 (OVCAR-4) was 788 nM and the CC50 (OVCAR-4) was > 100000 nM. For the same compound, the GI50 (SW-620) was 357 nM, the CC50 (SW-620) was > 100000 nM and the GI50 (NCI-H322M) was 3020 nM. The CC50 (NCI-H322M) was > 100000 nM, the GI50 (T-47D) was 1230 nM and the CC50 (T-47D) was > 100000 nM. For the same compound, the GI50 (IGROV1) was 958 nM, the CC50 (IGROV1) was > 100000 nM and the GI50 (NCI-H460) was 339 nM. The CC50 (NCI-H460) was > 100000 nM, the GI50 (SK-OV-3) was 804 nM and the CC50 (SK-OV-3) was > 100000 nM. For the same compound, the GI50 (K-562) was 353 nM, the CC50 (K-562) was > 100000 nM and the GI50 (786-0) was 501 nM. For the same compound, the CC50 (786-0) was > 100000 nM.
